Data: ChEMBL document CHEMBL1201862, “PubChem BioAssay data set” (2004)
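Compound exposure: 48 hours, 5 concentrations, 96-well plates. GI50 marks 50% less growth.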 Activity calls are given as the source filed them. No stated cut-off is given here; in the data, active = GI50 up to about 1.1 µM and inactive = higher.

Legend:
Assay in all cases: growth of human tumour cells (NCI), 48 h
KM12 = system: KM12
U-251 = system: U-251
CCRF-CEM = system: CCRF-CEM
HOP-92 = system: HOP-92
786-0 = system: 786-0
HL-60 = system: HL-60
HOP-62 = system: HOP-62
MOLT-4 = system: MOLT-4
MDA-N = system: MDA-N
SF-539 = system: SF-539
RPMI-8226 = system: RPMI-8226
HCT-116 = system: HCT-116
TK-10 = system: TK-10
LOX IMVI = system: LOX IMVI
SK-OV-3 = system: SK-OV-3
T47D = system: T47D
HCT-15 = system: HCT-15
SK-MEL-5 = system: SK-MEL-5
SF-268 = system: SF-268
A549 = system: A549
SNB-19 = system: SNB-19
A498 = system: A498
SR = system: SR
ACHN = system: ACHN
CAKI-1 = system: CAKI-1
PC-3 = system: PC-3
IGROV-1 = system: IGROV-1
NCI-H460 = system: NCI-H460
OVCAR-5 = system: OVCAR-5
MCF7 = system: MCF7
SK-MEL-28 = system: SK-MEL-28
MDA-MB-435 = system: MDA-MB-435
Malme-3M = system: Malme-3M
MDA-MB-231 = system: MDA-MB-231
Hs-578T = system: Hs-578T
SNB-75 = system: SNB-75
NCI-H226 = system: NCI-H226
SW-620 = system: SW-620
DU-145 = system: DU-145
NCI/ADR-RES = system: NCI/ADR-RES
SN12C = system: SN12C
UACC-62 = system: UACC-62
COLO 205 = system: COLO 205
OVCAR-4 = system: OVCAR-4
UO-31 = system: UO-31
OVCAR-8 = system: OVCAR-8
K562 = system: K562
UACC-257 = system: UACC-257
SK-MEL-2 = system: SK-MEL-2
RXF 393 = system: RXF 393
NCI-H522 = system: NCI-H522
M14 = system: M14
HCC 2998 = system: HCC 2998
HT-29 = system: HT-29
NCI-H23 = system: NCI-H23
EKVX = system: EKVX
BT-549 = system: BT-549
SF-295 = system: SF-295
OVCAR-3 = system: OVCAR-3

O=C(Cn1c(=O)oc2ccc(C(=O)c3ccc(F)cc3)cc21)c1ccccc1
GI50 (KM12): > 100 µM (inactive) | GI50 (U-251): > 100 µM (inactive) | GI50 (CCRF-CEM): > 100 µM (inactive) | GI50 (HOP-92): > 100 µM (inactive) | GI50 (786-0): > 100 µM (inactive) | GI50 (HL-60): > 100 µM (inactive) | GI50 (HOP-62): > 100 µM (inactive) | GI50 (MOLT-4): 42.4 µM (inactive) | GI50 (MDA-N): > 100 µM (inactive) | GI50 (SF-539): > 100 µM (inactive) | GI50 (RPMI-8226): > 100 µM (inactive) | GI50 (HCT-116): > 100 µM (inactive) | GI50 (TK-10): > 100 µM (inactive) | GI50 (LOX IMVI): > 100 µM (inactive) | GI50 (SK-OV-3): > 100 µM (inactive) | GI50 (T47D): 93.5 µM (inactive) | GI50 (HCT-15): > 100 µM | GI50 (SK-MEL-5): 48 µM (inactive) | GI50 (SF-268): > 100 µM (inactive) | GI50 (A549): 55.8 µM (inactive) | GI50 (SNB-19): > 100 µM (inactive) | GI50 (A498): 21 µM (inactive) | GI50 (SR): > 100 µM (inactive) | GI50 (ACHN): > 100 µM (inactive) | GI50 (CAKI-1): > 100 µM (inactive) | GI50 (PC-3): > 100 µM (inactive) | GI50 (IGROV-1): > 100 µM (inactive) | GI50 (NCI-H460): 53.5 µM (inactive) | GI50 (OVCAR-5): > 100 µM (inactive) | GI50 (MCF7): > 100 µM (inactive) | GI50 (SK-MEL-28): > 100 µM (inactive) | GI50 (MDA-MB-435): > 100 µM (inactive) | GI50 (Malme-3M): > 100 µM (inactive) | GI50 (MDA-MB-231): > 100 µM (inactive) | GI50 (Hs-578T): > 100 µM (inactive) | GI50 (SNB-75): > 100 µM (inactive) | GI50 (NCI-H226): > 100 µM (inactive) | GI50 (SW-620): > 100 µM (inactive) | GI50 (DU-145): > 100 µM (inactive) | GI50 (NCI/ADR-RES): > 100 µM (inactive) | GI50 (SN12C): > 100 µM (inactive) | GI50 (UACC-62): > 100 µM (inactive) | GI50 (COLO 205): 66.2 µM (inactive) | GI50 (OVCAR-4): > 100 µM (inactive) | GI50 (UO-31): 25.7 µM (inactive) | GI50 (OVCAR-8): > 100 µM (inactive) | GI50 (K562): > 100 µM (inactive) | GI50 (UACC-257): > 100 µM (inactive) | GI50 (SK-MEL-2): > 100 µM (inactive) | GI50 (RXF 393): > 100 µM (inactive) | GI50 (NCI-H522): > 100 µM (inactive) | GI50 (M14): > 100 µM (inactive) | GI50 (HCC 2998): > 100 µM (inactive) | GI50 (HT-29): 42.7 µM (inactive) | GI50 (NCI-H23): > 100 µM (inactive)

COc1cc2c(cc1OCCCCN1CCN(CCCCOc3cc4c(cc3OC)C(=O)N3CCC[C@H]3C=N4)CC1)N=C[C@@H]1CCCN1C2=O
GI50 (KM12): 0.0628 µM (active) | GI50 (U-251): 0.0167 µM (active) | GI50 (EKVX): 0.281 µM (active) | GI50 (HOP-92): < 0.01 µM (active) | GI50 (786-0): < 0.014 µM (active) | GI50 (HL-60): < 0.01 µM (active) | GI50 (HOP-62): 0.0236 µM (active) | GI50 (MOLT-4): < 0.01 µM (active) | GI50 (SF-539): < 0.01 µM (active) | GI50 (RPMI-8226): < 0.0125 µM (active) | GI50 (HCT-116): 0.0216 µM (active) | GI50 (TK-10): 0.0589 µM (active) | GI50 (SK-OV-3): 4.45 µM (inactive) | GI50 (T47D): < 0.0118 µM (active) | GI50 (HCT-15): 1.14 µM | GI50 (SK-MEL-5): 0.0138 µM (active) | GI50 (BT-549): 0.0202 µM (active) | GI50 (SF-268): < 0.0289 µM (active) | GI50 (A549): 0.0923 µM (active) | GI50 (A498): 0.0543 µM (active) | GI50 (SR): 1 µM (active) | GI50 (ACHN): 0.0448 µM (active) | GI50 (CAKI-1): 0.0318 µM (active) | GI50 (PC-3): 0.0873 µM (active) | GI50 (IGROV-1): 0.146 µM (active) | GI50 (NCI-H460): 0.0234 µM (active) | GI50 (OVCAR-5): 0.0417 µM (active) | GI50 (MCF7): < 0.0318 µM (active) | GI50 (SK-MEL-28): 0.0206 µM (active) | GI50 (MDA-MB-435): 0.0508 µM (active) | GI50 (Malme-3M): 0.031 µM (active) | GI50 (MDA-MB-231): 0.0378 µM (active) | GI50 (Hs-578T): 0.0608 µM (active) | GI50 (SNB-75): 0.0262 µM (active) | GI50 (NCI-H226): < 0.01 µM (active) | GI50 (SW-620): < 0.0119 µM (active) | GI50 (DU-145): 0.0361 µM (active) | GI50 (NCI/ADR-RES): 1.94 µM (inactive) | GI50 (SN12C): < 0.01 µM (active) | GI50 (UACC-62): < 0.0105 µM (active) | GI50 (SF-295): < 0.0352 µM (active) | GI50 (OVCAR-3): 0.0372 µM (active) | GI50 (COLO 205): 0.0158 µM (active) | GI50 (OVCAR-4): 0.0776 µM (active) | GI50 (UO-31): 0.0798 µM (active) | GI50 (OVCAR-8): < 0.0172 µM (active) | GI50 (K562): 0.0199 µM (active) | GI50 (UACC-257): 0.0627 µM (active) | GI50 (SK-MEL-2): 0.0389 µM (active) | GI50 (RXF 393): 0.0676 µM (active) | GI50 (NCI-H522): < 0.01 µM (active) | GI50 (M14): 0.02 µM (active) | GI50 (HT-29): 0.0443 µM (active) | GI50 (NCI-H23): < 0.0241 µM (active)
